US20250304620A1, “ANTIMICROBIAL PEPTIDE AND APPLICATION THEREOF” (priority 2023, published 2025)
In brackets after ≈: the same amount, converted by molar mass. Marks after values point to notes of the source that are not given here. Non-standard residues stand in square brackets, D forms with d. Residues, ends and D or L forms follow the SMILES beside them. dPhe(4-F) = N[C@H](Cc1ccc(F)cc1)C(=O)O; d2Nal = N[C@H](Cc1ccc2ccccc2c1)C(=O)O

Assays:
[1] = tested on: Shigella flexneri ATCC 12022; experiment: MIC against clinically common bacterial strain; format: cell-based
Text: (§1) According to the Standards of Clinical and Laboratory Standards Institute (CLSI) of the USA for antimicrobial drug susceptibility test operation standards, the micronutrient serial twofold dilution method was used further determine MICs of 30 AMPs (S/N: LV-1 to LV-30) 10 clinically common sensitive strains and 6 fungi in clinical practice. The experiment was repeated 5 times in parallel.

[2] = tested on: Serratia marcescens ATCC 29021; format: cell-based
Text: as §1

Enterococcus ATCC 29212 = format: cell-based
Text: as §1

[3] = tested on: Trichophyton ATCC MYA-4438; format: cell-based
Text: as §1

[4] = tested on: Pseudomonas aeruginosa ATCC 27853; format: cell-based
Text: as §1

[5] = tested on: Corynebacterium ATCC 7715; format: cell-based
Text: as §1

[6] = tested on: Candida albicans ATCC MYA-2876; format: cell-based
Text: as §1

[7] = tested on: Escherichia coli ATCC 25922; format: cell-based
Text: as §1

Candida krusei ATCC 6258 = format: cell-based
Text: as §1

[8] = tested on: Candida tropicalis ATCC 750; format: cell-based
Text: as §1

[9] = tested on: Klebsiella pneumoniae ATCC 700603; format: cell-based
Text: as §1

[10] = tested on: Pseudomonas aeruginosa ATCC 27853; experiment: Injectable formulations on mice infected with peritonitis; format: in vivo, ICR mice; conditions: 1 mg/kg via tail vein, twice a day for 3 days, n = 10; for Average survival times (Days): observed for 14 d
In short: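 ICR mice of both sexes (10 per group) infected intraperitoneally with 0.2 mL P. aeruginosa ATCC 27853 at 1×10^9 CFU/mL. Injectable formulations dosed by body weight via tail vein twice daily for 3 days; deaths and survival time recorded over 14 d.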

[11] = tested on: Escherichia coli ATCC 25922; experiment: Oral formulations on mice with systemic bacterial infection; format: in vivo, ICR mice; conditions: 1 mg/kg gavage, three times a day for 7 days, n = 10; for Average survival times (Days): observed for 14 d
In short: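 ICR mice of both sexes, 10 per group, infected i.p. with 0.2 mL E. coli ATCC 25922 at 1×10^7 CFU/mL. Compounds gavaged by body weight immediately after infection, three times daily for 7 days; deaths and survival time recorded over 14 d observation.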

[12] = tested on: carbapenem-resistant Escherichia coli (CREC); format: cell-based; conditions: carbapenem-resistant (CREC)
Text: (§2) According to the Standards of Clinical and Laboratory Standards Institute (CLSI) of the USA for antimicrobial drug susceptibility test operation standards, the micronutrient serial twofold dilution method was used further determine MICs of the antimicrobial peptides LV-1 to LV-30 against 5 clinically common drug-resistant bacterial strains. The experiment was repeated 5 times in parallel. […] The tested drug-resistant strains included Methicillin-resistant Staphylococcus aureus (MRSA), carbapenem-resistant Escherichia coli (CREC), vancomycin-resistant Enterococcus (VRE), carbapenem-resistant Pseudomonas aeruginosa (CRPA), and carbapenem-resistant Klebsiella pneumoniae (CRKP).

[13] = tested on: Methicillin-resistant Staphylococcus aureus (MRSA); format: cell-based; conditions: Methicillin-resistant
Text: as §2

[14] = tested on: vancomycin-resistant Enterococcus (VRE); format: cell-based
Text: as §2

[15] = tested on: carbapenem-resistant Pseudomonas aeruginosa (CRPA); format: cell-based; conditions: carbapenem-resistant (CRPA)
Text: as §2

[16] = tested on: carbapenem-resistant Klebsiella pneumoniae (CRKP); format: cell-based; conditions: carbapenem-resistant (CRKP)
Text: as §2

[17] = tested on: Staphylococcus aureus (NRS 384); conditions: NRS 384, 3 h
Experimental: Trypsin (250 U/mg, pH=8.0) and AMPs (LV-1 to LV-30) were mixed in a ratio of 1:10 (w/w) and added to a reaction buffer (0.2 M sodium phosphate, 1 mM CaCl2), pH 7.5), and then incubated at 37° C. for 3 h.

SMILES | MIC Shigella flexneri ATCC 12022 [1] [µg/mL] | MIC Serratia marcescens ATCC 29021 [2] [µg/mL] | MIC Enterococcus ATCC 29212 (Enterococcus ATCC 29212) [µg/mL] | MIC Trichophyton ATCC MYA-4438 [3] [µg/mL] | MIC Pseudomonas aeruginosa ATCC 27853 [4] [µg/mL] | MIC Corynebacterium ATCC 7715 [5] [µg/mL] | MIC Candida albicans ATCC MYA-2876 [6] [µg/mL] | MIC Escherichia coli ATCC 25922 [7] [µg/mL] | MIC Candida krusei ATCC 6258 (Candida krusei ATCC 6258) [µg/mL] | MIC Candida tropicalis ATCC 750 [8] [µg/mL] | MIC Klebsiella pneumoniae ATCC 700603 [9] [µg/mL] | Number of mice that died on each day after infection: day 1 [10] [Mouse] | Number of mice that died on each day after infection: day 2 [10] [Mouse] | Number of mice that died on each day after infection: day 3 [10] [Mouse] | Number of mice that died on each day after infection: day 4 [10] [Mouse] | Number of mice that died on each day after infection: day 5 [10] [Mouse] | Average survival times (Days) [10] | Number of mice that died on each day after infection: day 4 [11] [Mouse] | Number of mice that died on each day after infection: day 5 [11] [Mouse] | Number of mice that died on each day after infection: day 6 [11] [Mouse] | other results
CC(=O)N[C@H](CCCNC(=N)N)C(=O)N[C@H](CCCCN)C(=O)N[C@H](CC(C)C)C(=O)N[C@H](CC(C)C)C(=O)N[C@H](Cc1ccccc1)C(=O)N[C@H](CCCNC(=N)N)C(=O)N[C@H](CC(C)C)C(=O)N[C@H](CCCCN)C(=O)N[C@H](Cc1ccc2ccccc2c1)C(=O)N[C@H](CCCNC(=N)N)C(=O)N[C@H](CCCCN)C(N)=O [LV-3] (Ac-[dR][dK][dL][dL][dF][dR][dL][dK][d2Nal][dR][dK]-NH2) | 2 (≈ 1.25 µM) | 4 (≈ 2.51 µM) | 4 (≈ 2.51 µM) | 16 (≈ 10 µM) | 4 (≈ 2.51 µM) | 4 (≈ 2.51 µM) | 8 (≈ 5.01 µM) | 1 (≈ 0.627 µM) | 16 (≈ 10 µM) | 8 (≈ 5.01 µM) | 2 (≈ 1.25 µM) | 1 | 1 | 0 | 2 | 1 | 8.6** Days | 1 | 0 | 1 | Number of mice that died on each day after infection: day 7 [11]: 2 Mouse; Number of mice that died on each day after infection: day 8 [11]: 1 Mouse; Average survival times (Days) [11]: 10.2*** Days; MIC CREC [12]: 4 µg/mL (≈ 2.51 µM); MIC MRSA [13]: 2 µg/mL (≈ 1.25 µM); MIC VRE [14]: 8 µg/mL (≈ 5.01 µM); MIC CRPA [15]: 8 µg/mL (≈ 5.01 µM); MIC CRKP [16]: 4 µg/mL (≈ 2.51 µM); Trypsin MIC [17]: 1 µg/mL
CC(=O)N[C@H](CCCNC(=N)N)C(=O)N[C@H](CCCCN)C(=O)N[C@H](CC(C)C)C(=O)N[C@H](CC(C)C)C(=O)N[C@H](Cc1ccc2ccccc2c1)C(=O)N[C@H](CCCNC(=N)N)C(=O)N[C@H](CC(C)C)C(=O)N[C@H](CCCCN)C(=O)N[C@H](Cc1ccccc1)C(=O)N[C@H](CCCNC(=N)N)C(=O)N[C@H](CCCCN)C(N)=O [LV-4] (Ac-[dR][dK][dL][dL][d2Nal][dR][dL][dK][dF][dR][dK]-NH2) | 4 (≈ 2.51 µM) | 2 (≈ 1.25 µM) | 2 (≈ 1.25 µM) | 8 (≈ 5.01 µM) | 2 (≈ 1.25 µM) | 2 (≈ 1.25 µM) | 8 (≈ 5.01 µM) | 2 (≈ 1.25 µM) | 16 (≈ 10 µM) | 16 (≈ 10 µM) | 4 (≈ 2.51 µM) | 0 | 1 | 0 | 2 | 1 | 9.9**** Days | 0 | 1 | 2 | Number of mice that died on each day after infection: day 7 [11]: 2 Mouse; Number of mice that died on each day after infection: day 8 [11]: 1 Mouse; Average survival times (Days) [11]: 9.5** Days; MIC CREC [12]: 8 µg/mL (≈ 5.01 µM); MIC MRSA [13]: 8 µg/mL (≈ 5.01 µM); MIC VRE [14]: 2 µg/mL (≈ 1.25 µM); MIC CRPA [15]: 4 µg/mL (≈ 2.51 µM); MIC CRKP [16]: 2 µg/mL (≈ 1.25 µM); Trypsin MIC [17]: 1 µg/mL
CC(=O)N[C@H](CCCNC(=N)N)C(=O)N[C@H](CCCCN)C(=O)N[C@H](CC(C)C)C(=O)N[C@H](CC(C)C)C(=O)N[C@H](Cc1ccc(F)cc1)C(=O)N[C@H](CCCCN)C(=O)N[C@H](CC(C)C)C(=O)N[C@H](CCCCN)C(=O)N[C@H](Cc1ccc(F)cc1)C(=O)N[C@H](CCCCN)C(=O)N[C@H](CCCNC(=N)N)C(N)=O [LV-5] (Ac-[dR][dK][dL][dL][dPhe(4-F)][dK][dL][dK][dPhe(4-F)][dK][dR]-NH2) | 2 (≈ 1.29 µM) | 2 (≈ 1.29 µM) | 2 (≈ 1.29 µM) | 4 (≈ 2.57 µM) | 2 (≈ 1.29 µM) | 4 (≈ 2.57 µM) | 8 (≈ 5.15 µM) | 4 (≈ 2.57 µM) | 4 (≈ 2.57 µM) | 8 (≈ 5.15 µM) | 2 (≈ 1.29 µM) | 1 | 1 | 1 | 0 | 1 | 9.5*** Days | 1 | 2 | 2 | Number of mice that died on each day after infection: day 7 [11]: 1 Mouse; Number of mice that died on each day after infection: day 8 [11]: 0 Mouse; Average survival times (Days) [11]: 8.9** Days; MIC CREC [12]: 8 µg/mL (≈ 5.15 µM); MIC MRSA [13]: 4 µg/mL (≈ 2.57 µM); MIC VRE [14]: 8 µg/mL (≈ 5.15 µM); MIC CRPA [15]: 4 µg/mL (≈ 2.57 µM); MIC CRKP [16]: 4 µg/mL (≈ 2.57 µM); Trypsin MIC [17]: 1 µg/mL
